Reference: paper PMC4041848, “Differential Effects of Omeprazole and Lansoprazole Enantiomers on Aryl Hydrocarbon Receptor in Human Hepatocytes and Cell Lines” (PLoS ONE, 2014)
Where two headings read alike, the source gives them in different places.

Columns and labels:
[1] = MTT cytotoxicity test in AZ-AHR reporter cells; conditions: human
Experimental: (§1) A stably transfected gene reporter cell line AZ-AHR, derived from human hepatoma HepG2 cells transfected with a construct containing several AhR binding sites upstream of a luciferase reporter gene, was used for assessment of AhR transcriptional activity. Cells were incubated for 24 h with tested compounds and/or vehicle (DMSO; 0.1% v/v), in the presence or absence of TCDD (10 nM; AZ-AHR cells) or DEX (100 nM; AZ-GR cells). After the treatments, cells were lysed and luciferase activity was measured. In parallel, cell viability was determined by conventional MTT test.
(§2) In the first series of experiments, the cytotoxicity of tested compounds was assessed in gene reporter cell line AZ-AHR. For this purpose, the cells were incubated for 24 h with S-OME, R-OME, rac-OME, S-LAN, R-LAN and rac-LAN at concentration ranging from 100 pM to 250 µM. The vehicle was DMSO (0.1% v/v). After the treatment, a conventional MTT test was performed.
(§3) Figure 1 Effect of omeprazole and lansoprazole enantiomers on transcriptional activity of aryl hydrocarbon receptor AhR in human gene reporter cell line AZ-AHR. The cells were seeded in 96-well plates and stabilized for 16 h. Panels A and B: Cells were incubated for 24 h with S-OME, R-OME, rac-OME, S-LAN, R-LAN and rac-LAN at concentrations ranging from 10^−10 M to 10^−4 M. The vehicle was DMSO (0.1% v/v). After the treatment, MTT test was performed and absorbance was measured at 540 nm. Treatments were performed in triplicates. The data are the mean from experiments from six different passages of cells and are expressed as a percentage of viability of control cells. The values of IC50 were calculated and are indicated in a figure. Panels C - F: AZ-AHR cells were incubated for 24 h with S-OME, R-OME, rac-OME, S-LAN, R-LAN and rac-LAN at concentrations ranging from 10^−10 M to 10^−4 M in the absence (Panels C and D - agonist mode) or in the presence (Panels E and F- antagonist mode) of TCDD (5 nM). The vehicle was DMSO (0.1% v/v). After the treatments, cells were lysed and luciferase activity was measured. Treatments were performed in triplicates in five (agonist mode) or four (antagonist mode) independent cell passages. […] Data are expressed as a fold induction of luciferase activity over control cells (Panels C and D - agonist mode) or as a percentage of maximal induction attained by TCDD (Panels E and F- antagonist mode).

[2] = system: aryl hydrocarbon receptor AhR; assay: AhR gene reporter assay, agonist mode; conditions: for AhR agonist efficacy: AZ-AHR cells, 24 h, compared to 5 nM TCDD, calculated at 100 µM compound (stated for omeprazole); for EC50 at 24 h: human
Experimental: as §1, §3
Gene reporter assays were performed in two different experimental layouts. […] In antagonist mode, cells were incubated with increasing concentrations of tested compounds in combination with model agonist (TCDD; 5 nM), and half-maximal inhibitory concentrations (IC50) were calculated. […] The efficacy was calculated at concentration of compounds of 100 µM and compared to 5 nM TCDD (Figure 1C).

CYP1A1 mRNA [3] = assay: CYP1A1 mRNA induction in primary human hepatocytes (qRT-PCR)
Excerpt: (§4) Primary human hepatocytes used in this study were obtained from two sources: (i) from multiorgan donor HH52; the use of liver cells of donor HH52 was approved by “Ethical committee at the Faculty Hospital Olomouc”,and it was in accordance with Transplantation law #285/2002 Sb; “Ethical committee at the Faculty Hospital Olomouc” waived the authors from obtaining consent from the next of kin, regarding human hepatocytes obtained from liver donor HH52. (ii) long-term human hepatocytes in monolayer Batch HEP220770 (person), Batch HEP220774 (person) were purchased from Biopredic International (Biopredic International, Rennes, France). Cells were cultured in serum-free medium. Cultures were maintained at 37°C and 5% CO2 in a humidified incubator.
(§5) Total RNA was isolated using TRI Reagent (Molecular Research Center, Cincinnati, OH, USA). cDNA was synthesized from 1000 ng of total RNA using M-MLV Reverse Transcriptase (Finnzymes, Espoo, Finland) at 42°C for 60 min in the presence of random hexamers (Takara, Shiga, Japan). qRT-PCR was carried out using LightCycler FastStart DNA MasterPLUS SYBR Green I (Roche Diagnostic Corporation, Prague, Czech Republic) on a Light Cycler 480 II apparatus (Roche Diagnostic Corporation). CYP1A1, CYP1A2 and GAPDH mRNAs were determined as described previously. Measurements were performed in triplicates. Gene expression was normalized to GAPDH as a housekeeping gene.
We examined a capability of omeprazole and lansoprazole to induce CYP1A1 and CYP1A2 mRNA and protein in primary human hepatocytes, which is a more physiological and metabolically competent cell model. Human hepatocytes were treated for 24 h or 48 h with TCDD (5 nM), vehicle (DMSO; 0.1% V/V) and tested compounds.
Figure 3 Effects of omeprazole and lansoprazole enantiomers on CYP1A1 mRNA, protein and EROD activity in primary human hepatocytes. Panel A and Panel B: RT-PCR analyses of CYP1A1 and CYP1A2 mRNA and western blots of CYP1A1 and CYP1A2 from two different cultures (HH52 and Hep220770) are shown. Human hepatocytes were incubated for 24 h (mRNA analysis) or 48 (protein analysis) with S-OME, R-OME, rac-OME, S-LAN, R-LAN, rac-LAN, TCDD and vehicle (DMSO; 0.1% v/v). RT-PCR data are the mean ± SD from triplicate measurements and are expressed as fold induction over vehicle-treated cells. Data were normalized to GAPDH mRNA levels. Density of bands in western blots was quantified by densitometry and the values are indicated along with respective blots. Panel C: EROD and cytotoxicity: Human hepatocytes (culture Hep220774) were treated for 24 h with S-OME, R-OME, rac-OME, S-LAN, R-LAN, rac-LAN, TCDD and vehicle (DMSO; 0.1% v/v). Upper bar graph: An activity of 7-ethoxyresorufin- O-deethylase (EROD) was measured by fluorescent spectrophotometry with 530 nm excitation and 590 nm emission filters. Treatments were performed in triplicates. The data are expressed as fold induction over the value from control cells. Lower bar graph: A conventional MTT test was performed and absorbance was measured at 540 nm. Treatments were performed in triplicates. The data are expressed as percentage of viability of control cells.

AZ-AHR cells = assay: MTT cytotoxicity test in AZ-AHR reporter cells; conditions: AZ-AHR cells, 24 h, MTT, concentrations up to 250 µM
Experimental: as §1, §2, §3

CYP1A1 mRNA [4] = conditions: HepG2, 24 h
Experimental: as §5
Treatments were performed in triplicates.

CYP1A1 protein = CYP1A1 protein induction in primary human hepatocytes (western blot); conditions: hepatocyte culture Hep220770, 48 h, 100 µM
Excerpt: Primary human hepatocytes used in this study were obtained from two sources: (i) from multiorgan donor HH52; the use of liver cells of donor HH52 was approved by “Ethical committee at the Faculty Hospital Olomouc”,and it was in accordance with Transplantation law #285/2002 Sb; “Ethical committee at the Faculty Hospital Olomouc” waived the authors from obtaining consent from the next of kin, regarding human hepatocytes obtained from liver donor HH52. (ii) long-term human hepatocytes in monolayer Batch HEP220770 (person), Batch HEP220774 (person) were purchased from Biopredic International (Biopredic International, Rennes, France). Cells were cultured in serum-free medium. […]
Total protein extracts were prepared from cells cultured on 6-well plates. […] Supernatant was collected and the protein content was determined by the Bradford reagent. […] The density of bands was measured by densitometry. […]
Figure 3 Effects of omeprazole and lansoprazole enantiomers on CYP1A1 mRNA, protein and EROD activity in primary human hepatocytes. […] RT-PCR data are the mean ± SD from triplicate measurements and are expressed as fold induction over vehicle-treated cells. […] Density of bands in western blots was quantified by densitometry and the values are indicated along with respective blots. […] The data are expressed as fold induction over the value from control cells. […]

CYP1A2 mRNA = CYP1A2 mRNA induction in primary human hepatocytes (qRT-PCR); conditions: hepatocyte culture Hep220770, 24 h
Excerpt: as §4
as §5, with “Gene expression was normalized to GAPDH as a housekeeping gene.” left out

CYP1A2 protein = CYP1A2 protein induction in primary human hepatocytes (western blot); conditions: hepatocyte culture HH52, 48 h, 10 µM
Excerpt: as §4
Total protein extracts were prepared from cells cultured on 6-well plates. Cells were washed twice with ice-cold PBS and scraped into 1 ml of PBS. The suspension was centrifuged (4500 RPM/5 min/4°C) and the pellet was resuspended in 150 µl of ice-cold lysis buffer (150 mM NaCl; 10 mM Tris pH 7.2; 0.1% (w/v) SDS; anti-protease cocktail, 1% (v/v) Triton X-100; anti-phosphatase cocktail, 1% (v/v) sodium deoxycholate; 5 mM EDTA). […] Supernatant was collected and the protein content was determined by the Bradford reagent. […] The density of bands was measured by densitometry. […]
Figure 3 Effects of omeprazole and lansoprazole enantiomers on CYP1A1 mRNA, protein and EROD activity in primary human hepatocytes. […] RT-PCR data are the mean ± SD from triplicate measurements and are expressed as fold induction over vehicle-treated cells. […] Density of bands in western blots was quantified by densitometry and the values are indicated along with respective blots. […] Upper bar graph: An activity of 7-ethoxyresorufin- O-deethylase (EROD) was measured by fluorescent spectrophotometry with 530 nm excitation and 590 nm emission filters. […] The data are expressed as fold induction over the value from control cells. Lower bar graph: A conventional MTT test was performed and absorbance was measured at 540 nm. […] The data are expressed as percentage of viability of control cells.

[5] = set-up: method as in PMID 8710755, PMID 19298580; conditions: after oral administration of racemic drug; ref [8], [9]; cited from earlier work
[6] = hepatocyte culture Hep220770, 24 h, 100 µM

Row | Structure (SMILES) | IC50 at 24 h [1] [µM] | AhR agonist efficacy [2] [%] | EC50 at 24 h [2] [µM] | CYP1A1 mRNA induction (CYP1A1 mRNA [3]; [6]) [fold] | cytotoxicity (AZ-AHR cells) | CYP1A1 mRNA induction (CYP1A1 mRNA [4]; 250 µM) | CYP1A1 mRNA induction (CYP1A1 mRNA [3]; hepatocyte culture Hep220770, 24 h, 250 µM) [fold] | CYP1A1 protein induction (CYP1A1 protein) | CYP1A1 mRNA induction relative to S-LAN (CYP1A1 mRNA [4]; 100 µM) | CYP1A1 mRNA induction relative to rac-LAN (CYP1A1 mRNA [4]; 100 µM) | CYP1A1 mRNA induction (CYP1A1 mRNA [3]; hepatocyte culture HH52, 24 h, 100 µM) | effect on CYP1A2 mRNA relative to S-LAN (CYP1A2 mRNA) | CYP1A2 protein induction (CYP1A2 protein) | share of circulating drug [5] | systemic exposure relative to the S-enantiomer [5] [fold]
1 | Cc1c(OCC(F)(F)F)ccnc1C[S+]([O-])c1nc2ccccc2[nH]1 (racemic) [rac-LAN, rac-lansoprazole] | > 250 | 22.8±5.6 | 2.4 ± 0.1 | 358 |  |  |  |  |  |  |  |  |  |  | 
2 | COc1ccc2[nH]c([S+]([O-])Cc3ncc(C)c(OC)c3C)nc2c1 (racemic) [rac-OME, rac-omeprazole] | > 250 | 51.4±30.4 | 30.1 ± 2.2 | 740 | not cytotoxic | approximately 180 fold | 706 | strong induction |  |  |  |  |  |  | 
3 | Cc1c(OCC(F)(F)F)ccnc1C[S@@+]([O-])c1nc2ccccc2[nH]1 [R-LAN, R-lansoprazole] | > 250 | 23.0±10.0 | 5.7 ± 2.9 | 575 |  |  |  |  | four times stronger | two times stronger | 17 % of TCDD induction | two times stronger | strong induction | more than 80% | 5
